In patent publication US11117856B2, “Polyamine compounds targeting the efflux pumps of multi-drug resistant bacterial pathogens and methods of using the same” (UNIVERSITY OF SOUTH FLORIDA, priority 2016, dated 2021):
Values joined by “and” are separate entries in the source; they are usually repeats but may differ in a detail not shown here. Equal values may be shown once.

Key:
[1] = system: tetracycline resistant strain of P. aeruginosa; assay: Checkerboard potentiation assay with tetracycline; type: cell-based; conditions: for FP^#c (Fold Potentiation, EC90): Table 1, tetracycline EC90; for FP* (Fold Potentiation, EC50): EC50 tetracycline with no TPI/with TPI; for FP* (Fold Potentiation, EC50) / FP^# (Fold Potentiation, EC90): 25 μg mL^−1 TPI; for FP^# (Fold Potentiation, EC90): EC90 tetracycline with no TPI/with TPI; for FP*^c (Fold Potentiation, EC50): Table 1, tetracycline EC50; for TPI (inhibitory concentration of the polyamines alone to produce EC values): polyamine alone, no tetracycline, 25 μg mL^−1 highest concentration tested
Protocol: (§1) The bacterial strains used in this study are multi-drug resistant clinical isolates that have previously been described (TABLE 2) (Fleeman, et al. J. Med. Chem. 2015, 58, 3340-3355). Organisms were grown in tryptic soy broth (TSB) for overnight cultures, and cation adjusted Mueller Hinton broth (CA-MH II) was used for experimental procedures. All incubations were performed at 37° C.
(§2) Scaffold ranking library samples and individual polyamines were screened using checkerboard inhibitory assays to assess the potentiation of tetracycline and chloramphenicol. The test utilized a 96-well plate microtiter assay where the concentration of the scaffold or individual polyamine was decreased from 25 μg mL^−1 to 0.8 μg mL^−1 (average molarity of 65 μM to 4 μM) along the rows, and the concentration of tetracycline or chloramphenicol was increased from 0.4 μM to 100 μM across the columns. Plates were incubated statically at 37° C. for 20 hours, and the optical density (OD600) was determined using a Synergy 2 plate reader (Biotek). Potentiation modeling (detailed below) was performed to determine fold change in the 50% and 90% effective concentration of tetracycline or chloramphenicol.
Potentiation was quantified using a mathematical model developed by our group to assess the ability of library samples and individual compounds to effectively enhance the activity of tetracycline or chloramphenicol (Hoel, D. G. Statistical Aspects of Chemical Mixtures. Methods for assessing the effects of mixtures of chemicals. 1987, New York). […] In this way, only libraries and compounds that potentiated tetracycline or chloramphenicol activity were pursued. The model is based on the following equation for modeling the percentage activity of a mixture of two agents with independent action (Hoel, et al. Statistical Aspects of Chemical Mixtures. Methods for assessing the effects of mixtures of chemicals. 1987, New York): %Antibiotic & Comp(x1,x2)=%Antibiotic(x1)+%Comp(x2)−%Antibiotic(x1)·%Comp(x2)
Here, x1 and x2 are the concentrations of antibiotic (tetracycline or chloramphenicol) and library/compound (Comp) tested, respectively. This equation can be rearranged to model the effective percent activity (EC) of the antibiotic alone, after accounting for compound activity:
[formula] Thus, the model-adjusted checkerboards show the antibiotic activity post-potentiation, and from that one can determine the true change in MIC.

[2] = system: Hek293T cells; assay: MTT cytotoxicity assay; type: cell-based, human; conditions: 25 μg mL^−1, 48 hours
Protocol: (§3) To assess toxicity of polyamine compounds we used HepG2 human liver carcinoma cells and Hek293T human embryonic kidney epithelial cells. […] J. Med. Chem. 2015, 58, 3340-3355). […] Cells were then incubated for 48 hours at 37° C. with 5% CO2. Following this, viability was assessed by the addition of MTT and measuring the OD570 in a Biotek plate reader. Percent recovery was determined compared to no drug controls.

[3] = system: P. aeruginosa biofilm; assay: Pre-formed biofilm viability assessment with tetracycline; type: cell-based; conditions: for biofilm cells recovered, EPI alone: 25 μg mL^−1 (MPC), no tetracycline;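 for biofilm recovery, combination treatment: percent recovery versus no treatment controls after 20 Hours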
Protocol: (§4) Lead agents were screened for bactericidal activity as described previously (Van Horn, et al. J. Med. Chem. 2014, 57, 3075-3093; […], et al. J. Med. Chem. 2015, 58, 3340-3355), with the following modifications. […] Biofilm experiments were performed similar to those described previously ([…], et al. J. Med. Chem. 2015, 58, 3340-3355; von Salm, et al. Org. Lett. 2016, 18, 2596-2599), with the following modifications.

[4] = system: P. aeruginosa; assay: Bactericidal assessment with tetracycline; type: cell-based
Protocol: as §4

[5] = system: HepG2 cells; assay: MTT cytotoxicity assay; type: cell-based, human; conditions: 25 μg mL^−1 (highest concentration tested), 48 hours
Protocol: as §3

[6] = system: P. aeruginosa; assay: Checkerboard potentiation assay with chloramphenicol; type: cell-based; conditions: increasing EPI concentration, dose response
Protocol: as §1
as §2, with “Potentiation modeling (detailed below) was performed to determine fold change in the 50% and 90% effective concentration of tetracycline or chloramphenicol.” left out
Potentiation was quantified using a mathematical model developed by our group to assess the ability of library samples and individual compounds to effectively enhance the activity of tetracycline or chloramphenicol (Hoel, D. G. Statistical Aspects of Chemical Mixtures. Methods for assessing the effects of mixtures of chemicals. 1987, New York). […]

[7] = system: P. aeruginosa cells; assay: Bacterial membrane depolarization (DiSC3 dye); type: cell-based; conditions: 25 μg mL^−1
Protocol: To determine the level of membrane depolarization by polyamine compounds a 3,3′-dipropylthiadicarbocyanine Iodide (DiSC3) fluorescence dye was used. Exponentially growing cultures were prepared as described above, before being harvested by centrifugation. Cells were next washed in buffer A (5 mM HEPES pH 7.2, 5 mM glucose) and resuspended to an OD600 of 0.2 in the same buffer containing 100 mM KCl and 2 μM DiSC3. Samples were allowed to equilibrate for 15 minutes at room temperature to ensure uptake and quenching of the dye in bacterial membranes. Cells were aliquoted into 96-well plates and polyamines were added alongside the known efflux inhibitor PAN (all at 25 μg mL^−1). Nisin (25 μg mL^−1) was used as a positive control to display depolarization effects. A Biotek plate reader was used to monitor fluorescence of wells, with a 622 nm excitation and 670 nm emission. For graphical representation, the maximum relative fluorescence at 2 minutes was used for comparison of lead agents to controls.

[8] = 25 μM tetracycline + MPC of EPI
[9] = 50 μM tetracycline + MPC of EPI
[10] = 12 μM tetracycline + MPC of EPI

Compound | FP^#c (Fold Potentiation, EC90) [1] | FP* (Fold Potentiation, EC50) [1] | FP^# (Fold Potentiation, EC90) [1] | FP*^c (Fold Potentiation, EC50) [1] | percent recovery of Hek293T cells compared to solvent only controls [2] | biofilm recovery, combination treatment [3, 8] | biofilm cells recovered, EPI alone [3] | biofilm recovery, combination treatment [3, 9] | TPI (inhibitory concentration of the polyamines alone to produce EC values) [1] | percent recovery, combination treatment [4, 10] | percent recovery, combination treatment [4, 9] | HepG2 cell viability / recovery [5] | change in DiSC3 fluorescence (membrane depolarization) [7] | also measured
O=C(N[C@H](CO)[C@H](O)c1ccc([N+](=O)[O-])cc1)C(Cl)Cl [chloramphenicol] |  |  |  |  |  |  |  |  |  |  |  |  | decreased in florescence | 
CN(C)[C@@H]1C(O)=C(C(N)=O)C(=O)[C@@]2(O)C(O)=C3C(=O)c4c(O)cccc4[C@@](C)(O)[C@H]3C[C@@H]12 [tetracycline, reference compound] |  |  |  |  |  |  |  |  |  |  |  |  |  | more biofilm eradication on increasing tetracycline by itself ([3]; from 12 μM to 25 μM): 4%; biofilm cells recovered, tetracycline alone ([3]; tetracycline 50 μM): 9%; EC50 ([1]; Pseudomonas aeruginosa, no EPI, average across all replicates, read-out: tetracycline alone EC50): 47.8 µM; EC90 ([1]; no library or EPI, average across all replicates, read-out: tetracycline alone EC90): 82.5 µM; less recovery on increasing tetracycline alone ([4]; from 12 μM to 25 μM): 17.8%; bacterial recovery, tetracycline alone ([4]; tetracycline 12 μM): 53%; bacterial recovery, tetracycline alone ([4]; tetracycline 25 μM): 35%; bacterial recovery, tetracycline alone ([4]; tetracycline 50 μM): 1%
nisin |  |  |  |  |  |  |  |  |  |  |  |  | strong increase in fluorescence | 
phenylalanine arginine beta naphthalamide [PAβN, reference compound] | 8 fold |  |  | 65.5 fold | 63% | 7% |  | 1% |  | 0.79% | 0.02% | 68% | strong increase in fluorescence | TPL (inhibitory concentration of the Torrey Pines Library alone to produce an EC90 value) [1]: >25 µg/mL; FP (Fold Potentiation, EC90) ([1]; EC90 tetracycline with no TPL/EC90 tetracycline with TPL, 25 μg mL−1 library): 8.01 fold; EPI*^a (inhibitory concentration of the individual Efflux Pump Inhibitor alone) ([1]; EPI alone, 50% effective concentration): >25 µg/mL; percent recovery, combination treatment [4, 8]: 0.2%; bacterial recovery (viability), EPI alone ([4]; 25 μg mL^−1, no tetracycline): 76%

Further lines, with some results ahead:

FP^#c (Fold Potentiation, EC90) [1] | FP* (Fold Potentiation, EC50) [1] | FP^# (Fold Potentiation, EC90) [1] | FP*^c (Fold Potentiation, EC50) [1] | Compound | percent recovery of Hek293T cells compared to solvent only controls [2] | biofilm recovery, combination treatment [3, 8] | biofilm cells recovered, EPI alone [3] | biofilm recovery, combination treatment [3, 9] | TPI (inhibitory concentration of the polyamines alone to produce EC values) [1] | percent recovery, combination treatment [4, 10] | percent recovery, combination treatment [4, 9] | HepG2 cell viability / recovery [5] | change in DiSC3 fluorescence (membrane depolarization) [7] | also measured
1 fold |  |  |  | COC(=O)[C@H]1[C@H]2C[C@@H]3c4[nH]c5cc(OC)ccc5c4CCN3C[C@H]2C[C@@H](OC(=O)c2cc(OC)c(OC)c(OC)c2)[C@@H]1OC [Reserpine, reference compound] |  |  |  |  |  |  |  |  |  | 
8.3 fold | 5 fold | 7.5 fold | 5 fold and 5.0 fold | CNCCCC[C@@H](CN)NC[C@H](Cc1ccccc1)NCCc1ccccc1 [TPI 247, (S)—N6-methyl-N2—((S)-2-(phenethylamino)-3-phenylpropyl)hexane-1,2,6-triamine] | 84% | 0.6% | 99.99% | 0.2% | >25 µg/mL | 2.9% | 0.04% |  |  | 
7.8 fold | 7 fold | 7.8 fold | 7.0 fold | NCC[C@@H](CN)NC[C@H](Cc1ccccc1)NCCc1ccccc1 [TPI 250, (S)—N^2—((S)-2-(phenethylamino)-3-phenylpropyl)butane-1,2,4-triamine] |  | 1% | 99.99% | 0.5% | >25 µg/mL | 2.2% | 0.01% | 80% |  | biofilm recovery, combination treatment [3, 10]: 21%; improvement of tetracycline alone biofilm eradication [3, 10]: 67%
5.8 fold | 6.8 fold | 5.8 fold | 6.8 fold | CNCCCC[C@H](CN)NC[C@H](Cc1ccccc1)NCCc1ccccc1 [TPI 266, (R)—N^6-methyl-N^2—((S)-2-(phenethylamino)-3-phenylpropyl)hexane-1,2,6-triamine] | 72% | 1% | 92% | 0.6% | >25 µg/mL | 0.76% | 0.01% |  |  | potentiation of chloramphenicol EC90 [6]: highest potentiation values
8.5 fold | 8.2 fold | 8.5 fold | 8.2 fold | NCCC[C@H](CN)NC[C@H](Cc1ccccc1)NCCc1ccccc1 [TPI 271, (R)—N^2—((S)-2-(phenethylamino)-3-phenylpropyl)pentane-1,2,5-triamine] | 75% | 0.5% | 99.99% | 0.2% | >25 µg/mL | 2% | 0.02% | 74% |  | 
7.5 fold | 5 fold | 7.5 fold | 5 fold and 5.0 fold | NCCC[C@@H](CN[C@H](CN)Cc1ccccc1)NCCc1ccccc1 [TPI 314, (S)—N^1—((S)-1-amino-3-phenylpropan-2-yl)-N^2-phenethylpentane-1,2,5-triamine] |  | 1% | 99.99% | 0.6% | >25 µg/mL | 5.3% | 0.01% | 77% |  | 
